According to patent publication US20040043425A1, “Proteins, genes and their use for diagnosis and treatment of chronic asthma” (priority 2000, published 2004):

Columns and labels:
CAF-25 = assay: 2D electrophoresis fold change of CAF-25 in primary cultures of human airway myofibroblasts; assay type: cell-based; details: thrombin 20 units/ml
Method: (§1) dexamethasone at 1 μM (glucocorticoid).

CAF-24 = assay: 2D electrophoresis fold change of CAF-24 in primary cultures of human airway myofibroblasts; assay type: cell-based; details: thrombin 20 units/ml, early
Method: as §1

CAF-20 = assay: 2D electrophoresis fold change of CAF-20 in primary cultures of human airway myofibroblasts; assay type: cell-based; details: thrombin 20 units/ml, early
Method: as §1

CAF-3 = assay: 2D electrophoresis fold change of CAF-3 in primary cultures of human airway myofibroblasts; assay type: cell-based; details: thrombin 20 units/ml
Method: as §1

CAF-22 = assay: 2D electrophoresis fold change of CAF-22 in primary cultures of human airway myofibroblasts; assay type: cell-based; details: thrombin 20 units/ml, early
Method: as §1

CAF-1 = details: thrombin 20 units/ml
Method: Using the following procedure, proteins in primary cultures of human airway myofibroblasts were separated by isoelectric focusing followed by SDS-PAGE and analyzed. Different cultures were used, infra, and two different time points at 1 hour (referred to as “early”) and 6 hours (referred to as “late”) were taken. Parts 6.1.1 to 6.1.14 (inclusive) of the procedure set forth below are hereby designated as the “Reference Protocol”.
Primary cultures of human airway myofibroblasts (Hall IP, Kotlikoff M, Am J Physiol January 1995; 268(1 Pt 1): L1-11, Use of cultured airway myocytes for study of airway smooth muscle; Hirst S J, Eur Respir J April 1996; 9(4): 808-20, Airway smooth muscle cell culture: application to studies of airway wall remodeling and phenotype plasticity in asthma.) were treated by one, or a successive combination of, the following:
thrombin at 20 units/ml (Panettieri R A Jr, Hall I P, Maki C S, Murray R K, Am J Respir Cell Mol Biol August 1995; 13(2):205-16, Alpha-Thrombin increases cytosolic calcium and induces human airway smooth muscle cell proliferation).
as §1
theophylline 100 μM (Billington C K, Joseph S K, Swan C, Scott M G, Jobson T M, Hall I P, Am J Physiol March 1999; 276(3 Pt 1):L412-9, Modulation of human airway smooth muscle proliferation by type 3 phosphodiesterase inhibition).
Using the protein expression database, matching protein features present in test primary cultures and in control primary cultures were compared.

CAF-13 = assay: 2D electrophoresis fold change of CAF-13 in primary cultures of human airway myofibroblasts; assay type: cell-based; details: thrombin 20 units/ml
Method: as §1

CAF-29 = assay: 2D electrophoresis fold change of CAF-29 in primary cultures of human airway myofibroblasts; assay type: cell-based; details: thrombin 20 units/ml
Method: as §1

CAF-12 = assay: 2D electrophoresis fold change of CAF-12 in primary cultures of human airway myofibroblasts; assay type: cell-based; details: thrombin 20 units/ml, early
Method: as §1

CAF-15 = assay: 2D electrophoresis fold change of CAF-15 in primary cultures of human airway myofibroblasts; assay type: cell-based; details: thrombin 20 units/ml
Method: as §1

CAF-18 = assay: 2D electrophoresis fold change of CAF-18 in primary cultures of human airway myofibroblasts; assay type: cell-based; details: thrombin 20 units/ml
Method: as §1

CAF-33 = assay: 2D electrophoresis fold change of CAF-33 in primary cultures of human airway myofibroblasts; assay type: cell-based; details: thrombin 20 units/ml, late
Method: as §1

CAF-35 = assay: 2D electrophoresis fold change of CAF-35 in primary cultures of human airway myofibroblasts; assay type: cell-based; details: thrombin 20 units/ml, late
Method: as §1

CAF-5 = assay: 2D electrophoresis fold change of CAF-5 in primary cultures of human airway myofibroblasts; assay type: cell-based; details: thrombin 20 units/ml
Method: as §1

CAF-19 = assay: 2D electrophoresis fold change of CAF-19 in primary cultures of human airway myofibroblasts; assay type: cell-based; details: thrombin 20 units/ml, late
Method: as §1

CAF-2 = assay: 2D electrophoresis fold change of CAF-2 in primary cultures of human airway myofibroblasts; assay type: cell-based; details: thrombin 20 units/ml
Method: as §1

CAF-21 = assay: 2D electrophoresis fold change of CAF-21 in primary cultures of human airway myofibroblasts; assay type: cell-based; details: thrombin 20 units/ml
Method: as §1

CAF-34 = assay: 2D electrophoresis fold change of CAF-34 in primary cultures of human airway myofibroblasts; assay type: cell-based; details: thrombin 20 units/ml
Method: as §1

C[C@@H]1C[C@H]2[C@@H]3CCC4=CC(=O)C=C[C@]4(C)[C@@]3(F)[C@@H](O)C[C@]2(C)[C@@]1(O)C(=O)CO [Dexamethasone, dexamethasone]
Fold change following 1 h thrombin and 1 h Dexamethasone relative to cells treated with thrombin alone (CAF-25; dexamethasone 1 μM, early): 5.245 | Fold change following 1 h thrombin and 1 h Dexamethasone relative to cells treated with thrombin alone (CAF-24; dexamethasone 1 μM): 75.754 | Fold change following 1 h thrombin and 1 h Dexamethasone relative to cells treated with thrombin alone (CAF-20; dexamethasone 1 μM): 20.554 | Fold change following 1 h thrombin and 1 h Dexamethasone relative to cells treated with thrombin alone (CAF-3; dexamethasone 1 μM, early): 2.438 | Fold change following 1 h thrombin and 1 h Dexamethasone relative to cells treated with thrombin alone (CAF-22; dexamethasone 1 μM): −2.909 | Fold change following 1 h thrombin and 1 h Dexamethasone relative to cells treated with thrombin alone (CAF-1; dexamethasone 1 μM, early): 4.713 | Fold change following 1 h thrombin and 1 h Dexamethasone relative to cells treated with thrombin alone (CAF-13; dexamethasone 1 μM, early): 5.677 | Fold change following 6 h thrombin and 7 h Dexamethasone relative to cells treated with thrombin alone (CAF-29; dexamethasone 1 μM, late): −2.142 | Fold change following 1 h thrombin and 1 h Dexamethasone relative to cells treated with thrombin alone (CAF-12; dexamethasone 1 μM): 21.529 | Fold change following 1 h thrombin and 1 h Dexamethasone relative to cells treated with thrombin alone (CAF-15; dexamethasone 1 μM, early): 4.619 | Fold change following 6 h thrombin and 7 h Dexamethasone relative to cells treated with thrombin alone (CAF-15; dexamethasone 1 μM, late): −2.423 | Fold change following 1 h thrombin and 1 h Dexamethasone relative to cells treated with thrombin alone (CAF-18; dexamethasone 1 μM, early): 8.553 | Fold change following 6 h thrombin and 7 h Dexamethasone relative to cells treated with thrombin alone (CAF-18; dexamethasone 1 μM, late): −15.966

Cn1c(=O)c2[nH]cnc2n(C)c1=O [theophylline]
Fold change following 6 h thrombin and 6 h theophylline relative to cells treated with thrombin alone (CAF-33; theophylline 100 μM): 2.031 | Fold change following 1 h thrombin and 1 h theophylline relative to cells treated with thrombin alone (CAF-25; theophylline 100 μM, early): 10.216 | Fold change following 6 h thrombin and 6 h theophylline relative to cells treated with thrombin alone (CAF-25; theophylline 100 μM, late): 19.320 | Fold change following 6 h thrombin and 6 h theophylline relative to cells treated with thrombin alone (CAF-35; theophylline 100 μM): 2.182 | Fold change following 1 h thrombin and 1 h theophylline relative to cells treated with thrombin alone (CAF-24; theophylline 100 μM): 19.892 | Fold change following 1 h thrombin and 1 h theophylline relative to cells treated with thrombin alone (CAF-5; theophylline 100 μM, early): 2.306 | Fold change following 1 h thrombin and 1 h theophylline relative to cells treated with thrombin alone (CAF-20; theophylline 100 μM): 29.086 | Fold change following 1 h thrombin and 1 h theophylline relative to cells treated with thrombin alone (CAF-22; theophylline 100 μM): −2.096 | Fold change following 1 h thrombin and 1 h theophylline relative to cells treated with thrombin alone (CAF-1; theophylline 100 μM, early): 3.518 | Fold change following 6 h thrombin and 7 h theophylline relative to cells treated with thrombin alone (CAF-1; theophylline 100 μM, late): −2.122 | Fold change following 1 h thrombin and 1 h theophylline relative to cells treated with thrombin alone (CAF-13; theophylline 100 μM, early): 4.288 | Fold change following 6 h thrombin and 6 h theophylline relative to cells treated with thrombin alone (CAF-19; theophylline 100 μM): 2.800 | Fold change following 1 h thrombin and 1 h theophylline relative to cells treated with thrombin alone (CAF-12; theophylline 100 μM): 39.410 | Fold change following 1 h thrombin and 1 h theophylline relative to cells treated with thrombin alone (CAF-2; theophylline 100 μM, early): 4.912 | Fold change following 1 h thrombin and 1 h theophylline relative to cells treated with thrombin alone (CAF-15; theophylline 100 μM, early): 16.824 | Fold change following 6 h thrombin and 7 h theophylline relative to cells treated with thrombin alone (CAF-15; theophylline 100 μM, late): −2.077 | Fold change following 1 h thrombin and 1 h theophylline relative to cells treated with thrombin alone (CAF-18; theophylline 100 μM, early): 26.692 | Fold change following 6 h thrombin and 7 h theophylline relative to cells treated with thrombin alone (CAF-18; theophylline 100 μM, late): 2.839

thrombin
Fold change following 6 h thrombin, relative to untreated cells (CAF-33): −4.459 | Fold change following 1 h thrombin, relative to untreated cells (CAF-25; early): −8.122 | Fold change following 6 h thrombin, relative to untreated cells (CAF-25; late): −4.750 | Fold change following 6 h thrombin, relative to untreated cells (CAF-35): −3.705 | Fold change following 1 h thrombin, relative to untreated cells (CAF-21; early): −4.110 | Fold change following 6 h thrombin, relative to untreated cells (CAF-21; late): 4.186 | Fold change following 1 h thrombin, relative to untreated cells (CAF-24): −332.863 | Fold change following 1 h thrombin, relative to untreated cells (CAF-5; early): −3.486 | Fold change following 6 h thrombin, relative to untreated cells (CAF-5; late): −2.846 | Fold change following 1 h thrombin, relative to untreated cells (CAF-20): −16.512 | Fold change following 1 h thrombin, relative to untreated cells (CAF-3; early): −2.976 | Fold change following 6 h thrombin, relative to untreated cells (CAF-3; late): 2.120 | Fold change following 1 h thrombin, relative to untreated cells (CAF-22): 1.733 | Fold change following 1 h thrombin, relative to untreated cells (CAF-1; early): −4.393 | Fold change following 6 h thrombin, relative to untreated cells (CAF-1; late): 2.463 | Fold change following 1 h thrombin, relative to untreated cells (CAF-13; early): −2.425 | Fold change following 6 h thrombin, relative to untreated cells (CAF-13; late): 3.292 | Fold change following 1 h thrombin, relative to untreated cells (CAF-29; early): 2.597 | Fold change following 6 h thrombin, relative to untreated cells (CAF-29; late): 2.169 | Fold change following 6 h thrombin, relative to untreated cells (CAF-19): −2.815 | Fold change following 1 h thrombin, relative to untreated cells (CAF-34; early): 2.741 | Fold change following 6 h thrombin, relative to untreated cells (CAF-34; late): 5.005 | Fold change following 1 h thrombin, relative to untreated cells (CAF-12): −51.041 | Fold change following 1 h thrombin, relative to untreated cells (CAF-2; early): 7.832 | Fold change following 6 h thrombin, relative to untreated cells (CAF-2; late): 14.593 | Fold change following 1 h thrombin, relative to untreated cells (CAF-15; early): −14.045 | Fold change following 6 h thrombin, relative to untreated cells (CAF-15; late): 3.037 | Fold change following 1 h thrombin, relative to untreated cells (CAF-18; early): −19.780 | Fold change following 6 h thrombin, relative to untreated cells (CAF-18; late): 16.517
